According to patent US5552441A, “Leukotriene B4 antagonists” (Eli Lilly and Company, priority 1994, dated 1996):
Structures can show the parent of a compound that is named as a salt.

Key:
[1] = target: [^3 H]-LTB4 binding to guinea pig lung membranes (Cavia porcellus, UniProt H0VYV8); assay: Inhibition of [^3 H]LTB4 Binding to Guinea Pig Lung Membranes; conditions: approximately 140 pM [^3 H]-LTB4, 45 minutes at 30° C., pH 6.5, mean -log Ki, read-out: Inhibition of [^3 H]LTB4 Binding to Guinea Pig Lung Membranes pKi (converted)
Sequence of [^3 H]-LTB4 binding to guinea pig lung membranes (H0VYV8 1-348): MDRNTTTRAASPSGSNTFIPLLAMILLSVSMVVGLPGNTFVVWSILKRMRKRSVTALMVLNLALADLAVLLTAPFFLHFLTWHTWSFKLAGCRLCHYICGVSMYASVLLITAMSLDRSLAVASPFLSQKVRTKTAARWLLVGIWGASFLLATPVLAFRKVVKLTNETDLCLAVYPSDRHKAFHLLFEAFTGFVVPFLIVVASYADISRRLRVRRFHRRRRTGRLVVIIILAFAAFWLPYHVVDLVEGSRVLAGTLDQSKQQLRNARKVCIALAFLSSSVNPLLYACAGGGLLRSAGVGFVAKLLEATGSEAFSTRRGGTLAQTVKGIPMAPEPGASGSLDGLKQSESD

[2] = target: leukotriene B4 specific receptor on the membrane of human neutrophils (Homo sapiens, UniProt Q15722); assay: biochemical; conditions: 0.1-0.2 nM ^3 H-LTB4, 10 minutes at 4° C., read-out: Inhibition of [^3 H]LTB4 Binding to Human Neutrophils IC50
Sequence of leukotriene B4 specific receptor on the membrane of human neutrophils (Q15722 whole entry): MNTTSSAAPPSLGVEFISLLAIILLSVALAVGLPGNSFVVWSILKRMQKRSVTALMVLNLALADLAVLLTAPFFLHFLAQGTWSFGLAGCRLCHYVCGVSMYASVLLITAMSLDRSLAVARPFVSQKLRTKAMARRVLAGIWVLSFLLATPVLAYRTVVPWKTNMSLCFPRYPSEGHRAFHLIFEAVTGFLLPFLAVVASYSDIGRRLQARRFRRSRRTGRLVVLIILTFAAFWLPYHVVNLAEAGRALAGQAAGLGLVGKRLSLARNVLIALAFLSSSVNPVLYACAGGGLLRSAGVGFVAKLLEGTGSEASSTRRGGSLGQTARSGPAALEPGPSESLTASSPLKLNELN
Procedure: The effectiveness of compounds to inhibit the binding of leukotriene B4 to a specific receptor on the membrane of human neutrophils was measured by using an adaptation of a radio-ligand binding assay developed by Goldman and Goetzl, J. Immunol., 129, 1600 (1982). Other investigators have developed similar assays (see, e.g., Kreisle, et al., J. Exp. Med., 157, 628 (1983) and Lin, et al., Prostaglandins, 28, 837 (1984)).
Cells used in the assay were isolated by standard techniques of centrifugation on Ficoll-Hypaque, dextran 70 sedimentation and hypotonic lysis. The following procedure was used. Freshly-prepared buffy coat layers from two individuals were obtained from a local blood donor center. The cells were mixed and diluted to 484 ml with phosphate buffered saline containing heparin (10 units/ml) and heat-inactivated calf serum (5%). This was divided into 20 ml aliquots and the aliquots layered on top of Ficoll-Paque (12 ml). The material was then centrifuged at 500 g for 40 minutes at room temperature. The resulting upper layer of platelets and mononuclear cells was discarded. The lower layer containing erythrocytes and neutrophils was retained. Buffer was added (1 ml per 4 ml of lower layer) and the suspension mixed. For each milliliter of this mixture, 0.33 ml of 6% Macrodex was added. After stirring the cells were allowed to sediment for 1 hour at 37° C. The resulting erythrocyte pellet was discarded and the neutrophil enriched supernatant fluid centrifuged at 500 g for 10 minutes at 4° C. […] Subsequently, the volume was made up to 50 ml by addition of ice-cold buffer and the cells resuspended. The suspension was then centrifuged at 300 g for 10 minutes at 4° C. […] This buffer consisted of Hanks' balanced salt solution and 0.1% ovalbumin (pH 7.3).
The amount of bound ^3 H-LTB4 was then measured and compared with the amount bound in the absence of test compound. The assay was carried out in microcentrifuge tubes by adding first 10 μl test compound dissolved in DMSO, followed by adding 20 μl ^3 H-LTB4 diluted in assay buffer, and finally adding 500 μl of the cell suspension. At the end of the 10 minutes incubation, 300 μl of a mixture of dibutyl and dinonyl phthalate (7:2) were added and the tubes centrifuged for 2 minutes in a microcentrifuge. The radioactivity bound to the cell pellet was measured by scintillation spectroscopy.

| SMILES | Ki [1] | IC50 [2] |
| --- | --- | --- |
| CCCc1c(OCCCOc2cc(O)c(C(C)=O)cc2CC)ccc2c1OC(C(=O)O)CC2 (centres unmarked) [Example 1, 7-[3-(4-acetyl-2-ethyl-5-hydroxyphenoxy)propoxy]-3,4-dihydro-8-propyl-2H-1-benzopyran-2-carboxylic acid] | 8.13 nM | – |
| CCCc1c(OCCCOc2cc(O)c(C(C)=O)cc2CC)cccc1OC(CC)C(=O)O (centres unmarked) [Example 5, 2-[3-[3-(4-acetyl-2-ethyl-5-hydroxyphenoxy)propoxy)-2-propylphenoxy]butanoic acid] | 13.8 nM | – |
| CCCc1c(OCCCOc2cc(O)c(C(C)=O)cc2CC)c(I)cc2c1OC(C(=O)O)CC2 (centres unmarked) [Example 6, 6-iodo-8-propyl-7-[3-[4-acetyl-2-ethyl-5-hydroxyphenoxy)propoxy]-3,4-dihydro-2H-1-benzopyran-2-caroxylic acid] | 25.7 nM | 327 nM |
| CCc1cc(C(C)=O)c(O)cc1OCCCOc1ccc2c(=O)c3cc(C(=O)O)ccc3oc2c1 [Example 7, 6-[3-(4-acetyl-2-ethyl-5-hydroxyphenoxy)propoxy]-9-oxo-9H-xanthene-2-carboxylic acid disodium salt sesquihydrate] | 741 nM | 190 nM |
| CCCc1cc(Oc2cccc(C(=O)O)c2)ccc1OCCCOc1cc(O)c(C(C)=O)cc1CC [Example 9, 3-[3-propyl-4-[3-(4-acetyl-2-ethyl-5-hydroxyphenoxy)propoxy]phenoxy]benzoic acid disodium salt] | 257 nM | 158 nM |
| CCc1cc(C(C)=O)c(O)cc1OCCCOc1cccc(Oc2ccccc2C(=O)O)c1 [Example 13, 2-[3-[3-(4-acetyl-2-ethyl-5-hydroxyphenoxy)propoxy]phenoxy]benzoic acid disodium salt hemihydrate] | 182 nM | 291 nM |
| CCc1cc(C(C)=O)c(O)cc1OCCCOc1cccc(Oc2cccc(C(=O)O)c2)c1 [Example 14, 3-[3-[3-(4-acetyl-2-ethyl-5-hydroxyphenoxy)propoxy]phenoxy]benzoic acid disodium salt hemihydrate] | 174 nM | 456 nM |
| CCc1cc(C(C)=O)c(O)cc1OCCCOc1ccc2c(=O)c3cc(C(=O)O)ccc3oc2c1CCC(=O)O [Example 15, 3-[4-[7-carboxy-3-[3-(4-acetyl-2-ethyl-5-hydroxyphenoxy)propoxy]-9-oxo-9H-xanthene]]propanoic acid trisodium salt trihydrate] | 0.977 nM | – |
| CCc1cc(C(C)=O)c(O)cc1OCCCOc1ccc2ccc(OCC(=O)O)cc2c1 [Example 16, [2-[7-[3-(4-Acetyl-2-ethyl-5-hydroxyphenoxy)propoxy]naphthalenyl]oxy]acetic acid sodium salt hydrate] | 117 nM | 409 nM |
| CCCc1c(OCCCCOc2cc(O)c(C(C)=O)cc2CC)cccc1Oc1ccccc1C(=O)O [Example 18, 2-[3-[4-(4-Acetyl-2-ethyl-5-hydroxyphenoxy)butoxy]-2-propyl-phenoxy]benzoic acid disodium salt] | 53.7 nM | 94 nM |
| CCCc1cc(Oc2ccc(C(=O)O)cc2)ccc1OCCCOc1cc(O)c(C(C)=O)cc1CC [sodium salt hydrate] | 1000 nM | 326 nM |
| CCc1cc(C(C)=O)c(O)cc1OCCCOc1ccc(Oc2ccc(C(=O)O)cc2)cc1 [sodium salt hydrate] | 132 nM | 193 nM |

Next, values leading:

| Ki [1] | IC50 [2] | SMILES |
| --- | --- | --- |
| 4.79 nM | 67 nM | CCCc1c(OCCCOc2cc(O)c(C(C)=O)cc2CC)cccc1OCC(=O)O [Example 3, 2-[2-propyl-3-[[3-(4-acetyl-2-ethyl-5-hydroxyphenoxy)proyl]oxy]phenoxy]acetic acid] |
| 15.1 nM | 23 nM | CCCc1c(OCCCOc2cc(O)c(C(C)=O)cc2CC)cccc1OC(C)C(=O)O (centres unmarked) [Example 4, 2-[3-[3-(4-acetyl-2-ethyl-5-hydroxyphenoxy)propoxy)-2-propylphenoxy]propanoic acid] |
| 2.04 nM | 43 nM | CCc1cc(C(C)=O)c(O)cc1OCCCOc1ccc2oc3ccccc3c2c1CCC(=O)O [Example 8, 3-[1-[2-[3-(4-acetyl-2-ethyl-5-hydroxyphenoxy)propoxy]dibenzofuran]]propanoic acid disodium salt] |
| 28.2 nM | 115 nM | CCc1cc(C(C)=O)c(O)cc1OCCCOc1ccc(-c2ccccc2)cc1CCC(=O)O [Example 11, 3-[1-[5-phenyl-2-[3-(4-acetyl-2-ethyl-5-hydroxyphenoxy)propoxy]phenyl]]propanoic acid disodium salt] |
| 170 nM | 127 nM | CCCc1c(OCCCOc2cc(O)c(C(C)=O)cc2CC)cccc1OCc1ccccc1C(=O)O [Example 17, 2-[[3-[3-(4-acetyl-2-ethyl-5-hydroxyphenoxy)propoxy]-2-propylphenoxy]methyl]benzoic acid disodium salt hemihydrate] |
| 34.7 nM | 24 nM | CCCc1c(OCCCOc2cc(O)c(C(C)=O)cc2CC)cccc1Oc1ccccc1C(=O)O [Example 19, 2-[3-[3-(4-Acetyl-2-ethyl-5-hydroxyphenoxy)propoxy]-2-propylphenoxy]benzoic acid disodium salt hydrate] |
| 6.61 nM | 46 nM | CCc1cc(C(C)=O)c(O)cc1OCCCOc1ccc(C(=O)c2cccc(C(=O)O)c2)cc1CCC(=O)O [Example 20, 3-[1-[2-[3-(4-acetyl-2-ethyl-5-hydroxyphenoxy)propoxy]-5-(3-carboxybenzoyl)phenyl]]propanoic acid trisodium salt hydrate] |
